# Patent US10526323B2, “Indazole and azaindazole substituted compounds as mGluR4 allosteric potentiators, compositions, and methods of treating neurological dysfunction” (Vanderbilt University, priority 2015, dated 2020)
# Target: mGluR4 (UniProt Q14833)
# Assay: mGluR4 potentiation assay: increase in response to an EC20 concentration of agonist (species not given)
# Type: cell-based
# Details: EC50 for potentiation of mGluR4; table does not state human or rat
# Outline: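 Human mGluR4 was expressed in CHO cells read with a Ca2+-sensitive dye; rat mGluR4 was co-expressed with GIRK in […] read by thallium flux. Potentiation is the rise over agonist-alone response, with EC50 and maximal potentiation from non-linear fits.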
row,Compound,EC50
1,"Cn1nc(OC2CCS(=O)(=O)CC2)c2ccc(Nc3n[nH]c4cccnc34)cc21 [Example 192, N-[3-(1,1-dioxothian-4-yl)oxy-1-methyl-indazol-6-yl]-1H-pyrazolo[4,3-b]pyridin-3-amine]",185 nM
2,"Cn1nc(OCC2COC2)c2ccc(Nc3n[nH]c4cccnc34)cc21 [Example 195, N-[1-methyl-3-(oxetan-3-ylmethoxy)indazol-6-yl]-1H-pyrazolo[4,3-b]pyridin-3-amine]",96.6 nM
3,"Cn1nc(OC2COC2)c2ccc(Nc3n[nH]c4cccnc34)cc21 [Example 216, N-[1-methyl-3-(oxetan-3-yloxy)indazol-6-yl]-1H-pyrazolo[4,3-b]pyridin-3-amine]",629 nM
4,"Cn1nc(Oc2cccc(C#N)n2)c2ccc(Nc3n[nH]c4cccnc34)cc21 [Example 231, 6-((6-((1H-pyrazolo[4,3-b]pyridin-3-yl)amino)-1-methyl-1H-indazol-3-yl)oxy)picolinonitrile]",119 nM
5,"Cn1nc(Oc2ccc(C#N)cn2)c2ccc(Nc3n[nH]c4cccnc34)cc21 [Example 237, 6-((6-((1H-pyrazolo[4,3-b]pyridin-3-yl)amino)-1-methyl-1H-indazol-3-yl)oxy)nicotinonitrile]",157 nM
6,"Cn1nc(OCc2ccncc2)c2ccc(Nc3n[nH]c4cccnc34)cc21 [Example 238, N-(1-methyl-3-(pyridin-4-ylmethoxy)-1H-indazol-6-yl)-1H-pyrazolo[4,3-b]pyridin-3-amine]",65.8 nM
7,"[2H]C([2H])([2H])Oc1nn(C)c2cc(Nc3n[nH]c4cccnc34)ccc12 [Example 240, N-(3-(methoxy-d3)-1-methyl-1H-indazol-6-yl)-1H-pyrazolo[4,3-b]pyridin-3-amine]",294 nM
8,"CC(C)COc1nn(C)c2cc(Nc3n[nH]c4cccnc34)ccc12 [Example 244, N-(3-isobutoxy-1-methyl-1H-indazol-6-yl)-1H-pyrazolo[4,3-b]pyridin-3-amine]",231 nM
9,"Cc1nn(CC(F)(F)F)c2ncc(Nc3n[nH]c4cccnc34)cc12 [Example 253, 3-methyl-N-(1H-pyrazolo[4,3-b]pyridin-3-yl)-1-(2,2,2-trifluoroethyl)pyrazolo[3,4-b]pyridin-5-amine]",240 nM
10,"Cc1nn(C2CCCC2)c2ncc(Nc3n[nH]c4cccnc34)cc12 [Example 254, 1-cyclopentyl-3-methyl-N-(1H-pyrazolo[4,3-b]pyridin-3-yl)pyrazolo[3,4-b]pyridin-5-amine]",> 10000 nM
11,"Cc1nn(CCO)c2ncc(Nc3n[nH]c4cccnc34)cc12 [Example 256, 2-[3-methyl-5-(1H-pyrazolo[4,3-b]pyridin-3-ylamino)pyrazolo[3,4-b]pyridin-1-yl]ethanol]",> 10000 nM
12,"COCCn1nc(C)c2cc(Nc3n[nH]c4cccnc34)cnc21 [Example 261, 1-(2-methoxyethyl)-3-methyl-N-(1H-pyrazolo[4,3-b]pyridin-3-yl)pyrazolo[3,4-b]pyridin-5-amine]",2330 nM
13,"Cc1nn(CC(C)(C)C)c2ncc(Nc3n[nH]c4cccnc34)cc12 [Example 262, 1-(2,2-dimethylpropyl)-3-methyl-N-(1H-pyrazolo[4,3-b]pyridin-3-yl)pyrazolo[3,4-b]pyridin-5-amine]",160 nM
14,"Cc1nn(C2CC2)c2ncc(Nc3n[nH]c4cccnc34)cc12 [Example 263, 1-cyclopropyl-3-methyl-N-(1H-pyrazolo[4,3-b]pyridin-3-yl)pyrazolo[3,4-b]pyridin-5-amine]",410 nM
15,"CCCn1nc(C)c2cc(Nc3n[nH]c4cccnc34)cnc21 [Example 264, 3-methyl-1-propyl-N-(1H-pyrazolo[4,3-b]pyridin-3-yl)pyrazolo[3,4-b]pyridin-5-amine]",150 nM
16,"Cc1nn(C(C)C)c2ncc(Nc3n[nH]c4ncccc34)cc12 [Example 267, N-(1-isopropyl-3-methyl-1H-pyrazolo[3,4-b]pyridin-5-yl)-1H-pyrazolo[3,4-b]pyridin-3-amine]",> 10000 nM
17,"Cc1cc(Cn2nc(Cl)c3cc(Nc4n[nH]c5cccnc45)ccc32)on1 [Example 277, N-(3-chloro-1-((3-methylisoxazol-5-yl)methyl)-1H-indazol-5-yl)-1H-pyrazolo[4,3-b]pyridin-3-amine]",310 nM
18,"O=C(O)Cn1nc(Cl)c2cc(Nc3n[nH]c4cccnc34)ccc21 [Example 278, 2-(5-((1H-pyrazolo[4,3-b]pyridin-3-yl)amino)-3-chloro-1H-indazol-1-yl)acetic acid]",1560 nM

# Now from value to compound:
row,EC50,Compound
1,112 nM,"Cn1nc(OCC2CC2(F)F)c2ccc(Nc3n[nH]c4cccnc34)cc21 (centres unmarked) [Example 188, N-[3-[(2,2-difluorocyclopropyl)methoxy]-1-methyl-indazol-6-yl]-1H-pyrazolo[4,3-b]pyridin-3-amine]"
2,146 nM,"Cn1nc(OCC2(C)COC2)c2ccc(Nc3n[nH]c4cccnc34)cc21 [Example 194, N-[1-methyl-3-[(3-methyloxetan-3-yl)methoxy]indazol-6-yl]-1H-pyrazolo[4,3-b]pyridin-3-amine]"
3,482 nM,"Cn1nc(Oc2ccc(C#N)cn2)c2c(Cl)cc(Nc3n[nH]c4cccnc34)cc21 [Example 207, 6-[4-chloro-1-methyl-6-(1H-pyrazolo[4,3-b]pyridin-3-ylamino)indazol-3-yl]oxypyridine-3-carbonitrile]"
4,322 nM,"Cn1nc(OCCN2CCOCC2)c2c(Cl)cc(Nc3n[nH]c4cccnc34)cc21 [Example 209, N-[4-chloro-1-methyl-3-(2-morpholinoethoxy)indazol-6-yl]-1H-pyrazolo[4,3-b]pyridin-3-amine]"
5,238 nM,"Cn1nc(OCCN2CCOCC2)c2ccc(Nc3n[nH]c4cccnc34)cc21 [Example 217, N-[1-methyl-3-(2-morpholinoethoxy)indazol-6-yl]-1H-pyrazolo[4,3-b]pyridin-3-amine]"
6,871 nM,"Cn1nc(-c2ccncc2)c2ccc(Nc3n[nH]c4cccnc34)cc21 [Example 218, N-[1-methyl-3-(4-pyridyl)indazol-6-yl]-1H-pyrazolo[4,3-b]pyridin-3-amine]"
7,46 nM,"Cn1nc(OC2CCOCC2)c2ccc(Nc3n[nH]c4cccnc34)cc21 [Example 225, N-(1-methyl-3-((tetrahydro-2H-pyran-4-yl)oxy)-1H-indazol-6-yl)-1H-pyrazolo[4,3-b]pyridin-3-amine]"
8,171 nM,"CCCOc1nn(C)c2cc(Nc3n[nH]c4cccnc34)ccc12 [Example 239, N-(1-methyl-3-propoxy-1H-indazol-6-yl)-1H-pyrazolo[4,3-b]pyridin-3-amine]"
9,356 nM,"[2H]C([2H])(C)Oc1nn(C)c2cc(Nc3n[nH]c4cccnc34)ccc12 [Example 241, N-(3-(ethoxy-1,1-d2)-1-methyl-1H-indazol-6-yl)-1H-pyrazolo[4,3-b]pyridin-3-amine]"
10,452 nM,"c1cnc2c(Nc3ccc4c(C5CC5)n[nH]c4c3)n[nH]c2c1 [Example 247, N-(3-cyclopropyl-1H-indazol-6-yl)-1H-pyrazolo[4,3-b]pyridin-3-amine]"
11,> 30000 nM,"Cc1nn(CCCO)c2ncc(Nc3n[nH]c4cccnc34)cc12 [Example 255, 3-[3-methyl-5-(1H-pyrazolo[4,3-b]pyridin-3-ylamino)pyrazolo[3,4-b]pyridin-1-yl]propan-1-ol]"
12,> 10000 nM,"Cc1nn(CC2CC2)c2ncc(Nc3n[nH]c4cccnc34)cc12 [Example 257, 1-(cyclopropylmethyl)-3-methyl-N-(1H-pyrazolo[4,3-b]pyridin-3-yl)pyrazolo[3,4-b]pyridin-5-amine]"
13,480 nM,"CCn1nc(C)c2cc(Nc3n[nH]c4cccnc34)cnc21 [Example 258, 1-ethyl-3-methyl-N-(1H-pyrazolo[4,3-b]pyridin-3-yl)pyrazolo[3,4-b]pyridin-5-amine]"
14,3700 nM,"Cc1nn(C2CCOCC2)c2ncc(Nc3n[nH]c4cccnc34)cc12 [Example 259, 3-methyl-N-(1H-pyrazolo[4,3-b]pyridin-3-yl)-1-tetrahydropyran-4-yl-pyrazolo[3,4-b]pyridin-5-amine]"
15,440 nM,"Cc1nn(C2CCCCC2)c2ncc(Nc3n[nH]c4cccnc34)cc12 [Example 260, 1-cyclohexyl-3-methyl-N-(1H-pyrazolo[4,3-b]pyridin-3-yl)pyrazolo[3,4-b]pyridin-5-amine]"
16,> 30000 nM,"Cc1nn(C)c2ncc(Nc3n[nH]c4cccnc34)cc12 [Example 268, N-(1,3-dimethyl-1H-pyrazolo[3,4-b]pyridin-5-yl)-1H-pyrazolo[4,3-b]pyridin-3-amine]"
17,2550 nM,"Cc1nn(C(C)C)c2ncc(Nc3n[nH]c4ccccc34)cc12 [Example 269, N-(1H-indazol-3-yl)-1-isopropyl-3-methyl-1H-pyrazolo[3,4-b]pyridin-5-amine]"
18,> 30000 nM,"Cc1nn(C(C)C)c2ncc(Nc3n[nH]c4cccnc34)cc12 [Example 270, N-(1-isopropyl-3-methyl-1H-pyrazolo[3,4-b]pyridin-5-yl)-1H-pyrazolo[4,3-b]pyridin-3-amine]"
19,> 10000 nM,"Cc1nn(C)c2ncc(Nc3n[nH]c4ccccc34)cc12 [Example 271, N-(1H-indazol-3-yl)-1,3-dimethyl-1H-pyrazolo[3,4-b]pyridin-5-amine]"
20,3020 nM,"CC(C)Cn1nc(Cl)c2cc(Nc3n[nH]c4cccnc34)ccc21 [Example 274, N-(3-chloro-1-isobutyl-1H-indazol-5-yl)-1H-pyrazolo[4,3-b]pyridin-3-amine]"
21,2720 nM,"FC(F)(F)Cn1nc(Cl)c2cc(Nc3n[nH]c4cccnc34)ccc21 [Example 275, N-(3-chloro-1-(2,2,2-trifluoroethyl)-1H-indazol-5-yl)-1H-pyrazolo[4,3-b]pyridin-3-amine]"
22,> 10000 nM,"Clc1nn(C2CCC2)c2ccc(Nc3n[nH]c4cccnc34)cc12 [Example 276, N-(3-chloro-1-cyclobutyl-1H-indazol-5-yl)-1H-pyrazolo[4,3-b]pyridin-3-amine]"
23,290 nM,"Cc1cc(Cn2nc(Cl)c3cc(Nc4n[nH]c5cccnc45)ccc32)no1 [Example 279, N-(3-chloro-1-((5-methylisoxazol-3-yl)methyl)-1H-indazol-5-yl)-1H-pyrazolo[4,3-b]pyridin-3-amine]"
